Source: patent US20260364215A1, “Radiopharmaceutical Compositions Targeting Ephrin Type-A Receptor 2 and Uses Thereof” (PeptiDream Inc., priority 2022, published 2026)
Numbered stars: 1 amine (or outer) side, 2 acyl side, 3 side chain; on linkers, the order of the positions; unused ones are H or OH. Bridge positions count the residues as written; N and C are the ends. Square brackets hold non-standard residues; d marks the D form. Side chains are listed from the residue outwards. Peptide text beside a SMILES is read from it. * marks the point of attachment. DOTA(Lu) = O=C1CN2CCN3CCN(CC(=O)*)CCN(CC2)CC(=O)[O][Lu]([O]1)[O]C(=O)C3; NH(1-deoxy-D-glucityl) = OC[C@@H](O)[C@@H](O)[C@H](O)[C@@H](O)CN*; DOTA = O=C(O)CN1CCN(CC(=O)O)CCN(CC(=O)*)CCN(CC(=O)O)CC1; Trp(1-Me,7-Cl) = Cn1cc(C[C@H](N)C(=O)O)c2cccc(Cl)c21; dPhe(3-CONH2) = NC(=O)c1cccc(C[C@@H](N)C(=O)O)c1; NMePhe(3-CN) = CN[C@@H](Cc1cccc(C#N)c1)C(=O)O; Piperazinyl(4-CH2COOH) = O=C(O)CN1CCN(*)CC1; Trp(1-Me) = Cn1cc(C[C@H](N)C(=O)O)c2ccccc21; NMe3Pal = CN[C@@H](Cc1cccnc1)C(=O)O; Gly(cBu) = N[C@H](C(=O)O)C1CCC1; NMeE = CN[C@@H](CCC(=O)O)C(=O)O; Aad = N[C@@H](CCCC(=O)O)C(=O)O; NMeN = CN[C@@H](CC(N)=O)C(=O)O; CO = O=C([*:1])[*:2]

These compounds were tested against T1, Recombinant Human EphA2 Fc Protein (Homo sapiens, UniProt P29317) (assay: Interaction analysis (kinetics, KD) of peptides and conjugates against EphA2 by SPR, Biacore T200, single-cycle kinetics (Examples B15 and B22)). Settings: not given.
T1 construct: purchased Elabscience
Type: binding
Outline: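 Biacore T200 SPR with Fc-tagged human EphA2 captured via anti-human antibody; running buffer HBS-P+ pH 7.4 with 1% DMSO, 25 °C. Five serial dilutions of peptide or conjugate run by single-cycle kinetics; KD from ka and kd after baseline subtraction.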

T1 sequence (P29317 24-534 limits assumed): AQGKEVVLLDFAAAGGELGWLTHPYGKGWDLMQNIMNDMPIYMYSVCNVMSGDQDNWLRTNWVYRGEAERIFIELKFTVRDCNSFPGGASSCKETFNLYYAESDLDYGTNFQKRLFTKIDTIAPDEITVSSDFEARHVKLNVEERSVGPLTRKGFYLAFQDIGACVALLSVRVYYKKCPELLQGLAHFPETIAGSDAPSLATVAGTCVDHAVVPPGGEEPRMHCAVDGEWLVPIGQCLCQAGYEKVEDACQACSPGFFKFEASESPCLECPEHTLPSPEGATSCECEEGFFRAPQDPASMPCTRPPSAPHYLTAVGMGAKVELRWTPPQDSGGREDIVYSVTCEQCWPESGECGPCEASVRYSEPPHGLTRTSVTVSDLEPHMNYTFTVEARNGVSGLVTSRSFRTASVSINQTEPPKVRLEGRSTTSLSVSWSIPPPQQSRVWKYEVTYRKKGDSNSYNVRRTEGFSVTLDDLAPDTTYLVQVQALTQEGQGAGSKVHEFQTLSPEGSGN

| SMILES | Kd [nM] |
| --- | --- |
| CN1C(=O)[C@H](CCCC(N)=O)NC(=O)[C@H](C2CCC2)NC(=O)[C@H](CC(N)=O)NC(=O)[C@H](Cc2cccnc2)N(C)C(=O)[C@@H](Cc2cccc(C(N)=O)c2)NC(=O)CSC[C@@H](C(=O)N[C@@H](CCCCNC(=O)CN2CCN3CCN4CCN(CC2)CC(=O)[O][Lu]([O]C(=O)C3)[O]C(=O)C4)C(N)=O)NC(=O)[C@H](Cc2cn(C)c3ccccc23)NC(=O)[C@H](CCCCNC(=O)N2CCN(CC(=O)O)CC2)NC(=O)[C@H](Cc2cn(C)c3c(Cl)cccc23)NC(=O)[C@@H]1CCC(=O)O [PDC_EphA2-00026606-C301] ({CH2CO}-[dPhe(3-CONH2)][NMe3Pal]N[Gly(cBu)][Aad](NH2)[NMeE][Trp(1-Me,7-Cl)]K([CO-Piperazinyl(4-CH2COOH)])[Trp(1-Me)]CK(DOTA(Lu))-NH2; thioether N-10) | < 1 |
| CC(C)C[C@@H]1NC(=O)[C@H](CC(N)=O)NC(=O)[C@H](Cc2cccnc2)N(C)C(=O)[C@@H](Cc2cccc(C(N)=O)c2)NC(=O)CSC[C@@H](C(N)=O)NC(=O)[C@H](CCCC(N)=O)NC(=O)[C@H]([C@@H](C)O)NC(=O)[C@H](Cc2cn(C)c3ccccc23)NC(=O)[C@H](CCCCNC(=O)CN2CCN3CCN4CCN(CC2)CC(=O)[O][Lu]([O]C(=O)C3)[O]C(=O)C4)NC(=O)[C@H](Cc2cn(C)c3c(Cl)cccc23)NC(=O)[C@H](CC(N)=O)N(C)C(=O)[C@H](CCCC(N)=O)NC1=O [PDC_EphA2-00026715] ({CH2CO}-[dPhe(3-CONH2)][NMe3Pal]NL[Aad](NH2)[NMeN][Trp(1-Me,7-Cl)]K(DOTA(Lu))[Trp(1-Me)]T[Aad](NH2)C-NH2; thioether N-12) | < 1 |
| C[C@@H](O)[C@@H]1NC(=O)[C@H](Cc2cn(C)c3ccccc23)NC(=O)[C@H](CCC(=O)NC[C@H](O)[C@@H](O)[C@H](O)[C@H](O)CO)NC(=O)[C@H](Cc2cn(C)c3c(Cl)cccc23)NC(=O)[C@H](CC(N)=O)N(C)C(=O)[C@H](CCC(=O)NC[C@H](O)[C@@H](O)[C@H](O)[C@H](O)CO)NC(=O)[C@H](C2CCC2)NC(=O)[C@H](CC(N)=O)NC(=O)[C@H](Cc2cccnc2)N(C)C(=O)[C@@H](Cc2cccc(C(N)=O)c2)NC(=O)CSC[C@@H](C(=O)N[C@H](CCCCNC(=O)CN2CCN3CCN4CCN(CC2)CC(=O)[O][Lu]([O]C(=O)C3)[O]C(=O)C4)C(N)=O)NC(=O)[C@H](CCCC(N)=O)NC1=O [PDC_EphA2-00022594-C302] ({CH2CO}-[dPhe(3-CONH2)][NMe3Pal]N[Gly(cBu)]E(NH(1-deoxy-D-glucityl))[NMeN][Trp(1-Me,7-Cl)]E(NH(1-deoxy-D-glucityl))[Trp(1-Me)]T[Aad](NH2)C[dK](DOTA(Lu))-NH2; thioether N-12) | < 1 |
| CC(C)C[C@@H]1NC(=O)[C@H](CC(N)=O)NC(=O)[C@H](Cc2cccnc2)N(C)C(=O)[C@@H](Cc2cccc(C(N)=O)c2)NC(=O)CSC[C@@H](C(N)=O)NC(=O)[C@H](CCCC(N)=O)NC(=O)[C@H]([C@@H](C)O)NC(=O)[C@H](Cc2cn(C)c3ccccc23)NC(=O)[C@H](CCCCNC(=O)CN2CCN3CCN4CCN(CC2)CC(=O)[O][Lu]([O]C(=O)C3)[O]C(=O)C4)NC(=O)[C@H](Cc2cn(C)c3c(Cl)cccc23)NC(=O)[C@H](CCC(=O)O)N(C)C(=O)[C@H](CCCC(N)=O)NC1=O [PDC_EphA2-00026718] ({CH2CO}-[dPhe(3-CONH2)][NMe3Pal]NL[Aad](NH2)[NMeE][Trp(1-Me,7-Cl)]K(DOTA(Lu))[Trp(1-Me)]T[Aad](NH2)C-NH2; thioether N-12) | < 1 |
| C[C@H]1NC(=O)CSC[C@@H](C(=O)N[C@H](CCCCNC(=O)CN2CCN3CCN4CCN(CC2)CC(=O)[O][Lu]([O]C(=O)C3)[O]C(=O)C4)C(N)=O)NC(=O)[C@H](CCCC(N)=O)NC(=O)[C@H]([C@@H](C)O)NC(=O)[C@H](Cc2cn(C)c3ccccc23)NC(=O)[C@H](CCC(=O)NC[C@H](O)[C@@H](O)[C@H](O)[C@H](O)CO)NC(=O)[C@H](Cc2cn(C)c3ccccc23)NC(=O)[C@H](Cc2cccnc2)N(C)C(=O)[C@H](CCCC(N)=O)NC(=O)[C@H](C2CCC2)NC(=O)[C@H](CC(N)=O)NC(=O)[C@H](Cc2cccnc2)N(C)C1=O [PDC_EphA2-00013705-C302] ({CH2CO}-[dA][NMe3Pal]N[Gly(cBu)][Aad](NH2)[NMe3Pal][Trp(1-Me)]E(NH(1-deoxy-D-glucityl))[Trp(1-Me)]T[Aad](NH2)C[dK](DOTA(Lu))-NH2; thioether N-12) | < 1 |
| C[C@@H](O)[C@@H]1NC(=O)[C@H](Cc2cn(C)c3ccccc23)NC(=O)[C@H](CCCCNC(=O)N2CCN(CC(=O)O)CC2)NC(=O)[C@H](Cc2cn(C)c3c(Cl)cccc23)NC(=O)[C@H](CCC(=O)O)N(C)C(=O)[C@H](CCCC(N)=O)NC(=O)[C@H](C2CCC2)NC(=O)[C@H](CC(N)=O)NC(=O)[C@H](Cc2cccc(C#N)c2)N(C)C(=O)[C@@H](Cc2cccc(C(N)=O)c2)NC(=O)CSC[C@@H](C(=O)N[C@H](CCCCNC(=O)CN2CCN3CCN4CCN(CC2)CC(=O)[O][Lu]([O]C(=O)C3)[O]C(=O)C4)C(N)=O)NC(=O)[C@H](CCCC(N)=O)NC1=O [PDC_EphA2-00022612-C302] ({CH2CO}-[dPhe(3-CONH2)][NMePhe(3-CN)]N[Gly(cBu)][Aad](NH2)[NMeE][Trp(1-Me,7-Cl)]K([CO-Piperazinyl(4-CH2COOH)])[Trp(1-Me)]T[Aad](NH2)C[dK](DOTA(Lu))-NH2; thioether N-12) | < 1 |
| CC(C)C[C@@H]1NC(=O)[C@H](CC(N)=O)NC(=O)[C@H](Cc2cccnc2)N(C)C(=O)[C@@H](C)NC(=O)CSC[C@@H](C(N)=O)NC(=O)[C@H](CCCCNC(=O)CN2CCN3CCN4CCN(CC2)CC(=O)[O][Lu]([O]C(=O)C3)[O]C(=O)C4)NC(=O)[C@H]([C@@H](C)O)NC(=O)[C@H](Cc2cn(C)c3ccccc23)NC(=O)[C@H](CCCCNC(=O)N2CCN(CC(=O)O)CC2)NC(=O)[C@H](Cc2cn(C)c3c(Cl)cccc23)NC(=O)[C@H](CCC(=O)O)N(C)C(=O)[C@H](CCCC(N)=O)NC1=O [PDC_EphA2-00026633] ({CH2CO}-[dA][NMe3Pal]NL[Aad](NH2)[NMeE][Trp(1-Me,7-Cl)]K([CO-Piperazinyl(4-CH2COOH)])[Trp(1-Me)]TK(DOTA(Lu))C-NH2; thioether N-12) | < 1 |
| C[C@@H](O)[C@@H]1NC(=O)[C@H](Cc2cn(C)c3ccccc23)NC(=O)[C@H](CCC(=O)NC[C@H](O)[C@@H](O)[C@H](O)[C@H](O)CO)NC(=O)[C@H](Cc2cn(C)c3ccccc23)NC(=O)[C@H](CC(N)=O)N(C)C(=O)[C@H](CCCC(N)=O)NC(=O)[C@H](C2CCC2)NC(=O)[C@H](CC(N)=O)NC(=O)[C@H](Cc2cccnc2)N(C)C(=O)[C@@H](Cc2cccc(C(N)=O)c2)NC(=O)CSC[C@@H](C(=O)N[C@H](CCCCNC(=O)CN2CCN3CCN4CCN(CC2)CC(=O)[O][Lu]([O]C(=O)C3)[O]C(=O)C4)C(N)=O)NC(=O)[C@H](CCCC(N)=O)NC1=O [PDC_EphA2-00022595-C302] ({CH2CO}-[dPhe(3-CONH2)][NMe3Pal]N[Gly(cBu)][Aad](NH2)[NMeN][Trp(1-Me)]E(NH(1-deoxy-D-glucityl))[Trp(1-Me)]T[Aad](NH2)C[dK](DOTA(Lu))-NH2; thioether N-12) | < 1 |

Same assay, conditions: conjugates, Biacore T200 according to Example B15, Table B16; read-out: SPR Kd

| SMILES | Kd [nM] |
| --- | --- |
| C[C@H]1NC(=O)CSC[C@@H](C(N)=O)NC(=O)[C@H](CCCCNC(=O)[C@@H](Cc2ccccc2)NC(=O)CN2CCN(CC(=O)O)CCN(CC(=O)O)CCN(CC(=O)O)CC2)NC(=O)[C@H]([C@@H](C)O)NC(=O)[C@H](Cc2cn(C)c3ccccc23)NC(=O)[C@H](CCCCNC(=O)N2CCN(CC(=O)O)CC2)NC(=O)[C@H](Cc2cn(C)c3c(Cl)cccc23)NC(=O)[C@H](CCC(=O)O)N(C)C(=O)[C@H](CCCC(N)=O)NC(=O)[C@H](C2CCC2)NC(=O)[C@H](CC(N)=O)NC(=O)[C@H](Cc2cccnc2)N(C)C1=O.[Lu+3] [PDC_EphA2-00027129] ({CH2CO}-[dA][NMe3Pal]N[Gly(cBu)][Aad](NH2)[NMeE][Trp(1-Me,7-Cl)]K([CO-Piperazinyl(4-CH2COOH)])[Trp(1-Me)]TK([dF-DOTA])C-NH2; thioether N-12) | < 1 |
| CC(C)C[C@@H]1NC(=O)[C@H](CC(N)=O)NC(=O)[C@H](Cc2cccnc2)N(C)C(=O)[C@@H](Cc2cccc(C(N)=O)c2)NC(=O)CSC[C@@H](C(N)=O)NC(=O)[C@H](CCCCNC(=O)CN2CCN(CC(=O)O)CCN(CC(=O)O)CCN(CC(=O)O)CC2)NC(=O)[C@H]([C@@H](C)O)NC(=O)[C@H](Cc2cn(C)c3ccccc23)NC(=O)[C@H](CCCCNC(=O)N2CCN(CC(=O)O)CC2)NC(=O)[C@H](Cc2cn(C)c3c(Cl)cccc23)NC(=O)[C@H](CCC(=O)O)N(C)C(=O)[C@H](CCCC(N)=O)NC1=O.[Lu+3] [PDC_EphA2-00026719] ({CH2CO}-[dPhe(3-CONH2)][NMe3Pal]NL[Aad](NH2)[NMeE][Trp(1-Me,7-Cl)]K([CO-Piperazinyl(4-CH2COOH)])[Trp(1-Me)]TK(DOTA)C-NH2; thioether N-12) | < 1 |
| C[C@H]1NC(=O)CSC[C@@H](C(=O)N[C@H](CCC(=O)O)C(N)=O)NC(=O)[C@H](CCCC(N)=O)NC(=O)[C@H]([C@@H](C)O)NC(=O)[C@H](Cc2cn(C)c3ccccc23)NC(=O)[C@H](CCCCNC(=O)N2CCN(CC(=O)O)CC2)NC(=O)[C@H](Cc2cn(C)c3c(Cl)cccc23)NC(=O)[C@H](CCC(=O)O)N(C)C(=O)[C@H](CCCCNC(=O)[C@@H](CCC(=O)O)NC(=O)CN2CCN(CC(=O)O)CCN(CC(=O)O)CCN(CC(=O)O)CC2)NC(=O)[C@H](C2CCC2)NC(=O)[C@H](CC(N)=O)NC(=O)[C@H](Cc2cccnc2)N(C)C1=O.[Lu+3] [PDC_EphA2-00027126] ({CH2CO}-[dA][NMe3Pal]N[Gly(cBu)]K([dE-DOTA])[NMeE][Trp(1-Me,7-Cl)]K([CO-Piperazinyl(4-CH2COOH)])[Trp(1-Me)]T[Aad](NH2)C[dE]-NH2; thioether N-12) | < 1 |
